Test results taken from patent US10894941B2, “Microfluidic multi-well-based cell culture testing device” (QUANTA MATRIX CO,. LTD., priority 2013, dated 2021).

How the values were obtained:
Type in all cases: cell-based
E. faecalis ATCC 29212 = experiment: double infection imaging in MAC chip, antibiotic susceptibility; details: gentamicin 32 μg/mL, erythromycin 8 μg/mL; 3 h incubation; 2% agarose
Protocol: (§1) The experimental conditions are as follows: • Strains • E. coli ATCC 25922 (rod-shaped strain) • E. faecalis ATCC 29212 (spherical strain) • Antibiotics • Gentamicin (concentration: 32 μg/mL)
(§2) […] At this time, the coexistence of the rod-shaped bacteria and the spherical bacteria was confirmed. It could also be confirmed whether double infection with the bacteria occurred.

E. coli ATCC 25922 = experiment: as above; details: gentamicin 32 μg/mL, erythromycin 8 μg/mL; 3 h incubation; 2% agarose
Protocol: as §1, §2

E. faecalis strain = experiment: antibiotic susceptibility testing (MIC) using the MAC chip; details: agarose, 37° C., 4-h incubation
Protocol: For this experiment, an E. faecalis solution was homogenized with liquid agarose and was injected into the chip. The agarose was gelled at room temperature. Thereafter, liquid penicillin as an antibiotic was injected into the well spaces. The chip was then incubated at an incubator at 37° C. and the results were observed after 4-h incubation.
The MIC of penicillin (2 μg/ml) could be obtained in 4 hours. In contrast, according to micro-dilution testing (MDT), a much longer time (18 hours) was consumed to obtain the MIC of penicillin.

| Compound | susceptibility (E. faecalis ATCC 29212) | susceptibility (E. coli ATCC 25922) | MIC (E. faecalis strain) [µg/mL] |
| --- | --- | --- | --- |
| Gentamicin | MICs are in the susceptible range for both strains | MICs are in the susceptible range for both strains |  |
| penicillin |  |  | 2 |
| CC[C@H]1OC(=O)[C@H](C)[C@@H](O[C@H]2C[C@@](C)(OC)[C@@H](O)[C@H](C)O2)[C@H](C)[C@@H](O[C@@H]2O[C@H](C)C[C@H](N(C)C)[C@H]2O)[C@](C)(O)C[C@@H](C)C(=O)[C@H](C)[C@@H](O)[C@]1(C)O [Erythromycin] | Susceptible to E. faecalis ATCC 29212 only | Susceptible to E. faecalis ATCC 29212 only |  |
